Results on 32 compounds are retold here after patent US8278452B2, “Heterocyclic compounds and compositions as c-kit and PDGFR kinase inhibitors” (IRM LLC, priority 2008, dated 2012).

In the assay the test system is Mo7e cells which endogenously express c-kit. Nature of the assay: Mo7e assay: inhibition of SCF dependent proliferation (MTT). The class given is cell-based. As to conditions: Table 1; SCF stimulated Mo7e cells, 48 hours, MTT. An outline of the steps:
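Mo7e cells stimulated with human recombinant SCF and exposed to two-fold serial compound dilutions from a top concentration of 10 μM. After 48 h at 37 °C, viability measured by MTT colorimetric assay; IC50 derived.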
On to `Cc1cc2c(cn1)cc(-c1cc(Nc3noc(C4CCCOC4)n3)ccc1C)c(=O)n2C` (centres unmarked) [Compound A59, 1,7-dimethyl-3-(2-methyl-5-{[5-(oxan-3-yl)-1,2,4-oxadiazol-3-yl]amino}phenyl)-1,2-dihydro-1,6-naphthyridin-2-one], for which 233 nM corresponded to half-maximal inhibition (IC50).

Turning to `Cc1cc2c(cn1)cc(-c1cc(Nc3noc(C(C)(C)CO)n3)ccc1C)c(=O)n2C` [Compound A35, 3-(5-(5-(1-hydroxy-2-methylpropan-2-yl)-1,2,4-oxadiazol-3-ylamino)-2-methylphenyl)-1,7-dimethyl-1,6-naphthyridin-2(1H)-one], the IC50 worked out at 181 nM.

As for `Cc1cc2c(cn1)cc(-c1cc(Nc3noc(-c4ccc(F)c(F)c4)n3)ccc1C)c(=O)n2C` [Compound A62, 3-(5-{[5-(3,4-difluorophenyl)-1,2,4-oxadiazol-3-yl]amino}-2-methylphenyl)-1,7-dimethyl-1,2-dihydro-1,6-naphthyridin-2-one], the IC50 was determined as 126 nM.

For the compound `Cc1cc2c(cn1)cc(-c1cc(Nc3noc(-c4ccc(C)nc4Cl)n3)ccc1C)c(=O)n2C` [Compound A48, 3-(5-{[5-(2-chloro-6-methylpyridin-3-yl)-1,2,4-oxadiazol-3-yl]amino}-2-methylphenyl)-1,7-dimethyl-1,2-dihydro-1,6-naphthyridin-2-one], the IC50 worked out at 361 nM.

`COc1cc(C)ccc1-c1nc(Nc2ccc(C)c(-c3cc4cnc(C)cc4n(C)c3=O)c2)no1` [Compound A80, 3-(5-{[5-(2-methoxy-4-methylphenyl)-1,2,4-oxadiazol-3-yl]amino}-2-methylphenyl)-1,7-dimethyl-1,2-dihydro-1,6-naphthyridin-2-one] had an IC50 of 338 nM.

Compound `CCC(C)c1nc(Nc2ccc(C)c(-c3cc4cnc(C)cc4n(C)c3=O)c2)no1` (centres unmarked) [Compound A29, 3-(5-{[5-(butan-2-yl)-1,2,4-oxadiazol-3-yl]amino}-2-methylphenyl)-1,7-dimethyl-1,2-dihydro-1,6-naphthyridin-2-one] returned an IC50 of 58 nM.

On to `Cc1cncc(-c2nc(Nc3ccc(C)c(-c4cc5cnc(C)cc5n(C)c4=O)c3)no2)c1` [Compound A53, 1,7-dimethyl-3-(2-methyl-5-{[5-(5-methylpyridin-3-yl)-1,2,4-oxadiazol-3-yl]amino}phenyl)-1,2-dihydro-1,6-naphthyridin-2-one], for which inhibition was half-maximal at 427 nM (IC50).

Turning to `Cc1cc2c(cn1)cc(-c1cc(Nc3noc(-c4ccccc4C)n3)ccc1C)c(=O)n2C` [Compound A16, 1,7-dimethyl-3-(2-methyl-5-{[5-(2-methylphenyl)-1,2,4-oxadiazol-3-yl]amino}phenyl)-1,2-dihydro-1,6-naphthyridin-2-one], the midpoint of inhibition, the IC50, lay at 114 nM.

Take `Cc1cc2c(cn1)cc(-c1cc(Nc3noc(-c4ccccn4)n3)ccc1C)c(=O)n2C` [Compound A52, 1,7-dimethyl-3-(2-methyl-5-(5-(pyridin-2-yl)-1,2,4-oxadiazol-3-ylamino)phenyl)-1,6-naphthyridin-2(1H)-one]: the midpoint of inhibition, the IC50, lay at 68 nM.

As for `CCCc1nc(Nc2ccc(C)c(-c3cc4cnc(C)cc4n(C)c3=O)c2)no1` [Compound A28, 1,7-dimethyl-3-{2-methyl-5-[(5-propyl-1,2,4-oxadiazol-3-yl)amino]phenyl}-1,2-dihydro-1,6-naphthyridin-2-one], the IC50 stood at 50 nM.

Take `Cc1cc2c(cn1)cc(-c1cc(Nc3cc(C4CC4)on3)ccc1C)c(=O)n2C` [Compound D4, 3-(5-(5-cyclopropylisoxazol-3-ylamino)-2-methylphenyl)-1,7-dimethyl-1,6-naphthyridin-2(1H)-one]: the IC50 was 56 nM.

`Cc1cc2c(cn1)cc(-c1cc(Nc3nnc(-c4ccc(Cl)cc4)[nH]3)ccc1C)c(=O)n2C` [Compound C2, 3-(5-{[5-(4-chlorophenyl)-4H-1,2,4-triazol-3-yl]amino}-2-methylphenyl)-1,7-dimethyl-1,2-dihydro-1,6-naphthyridin-2-one] came in with an IC50 of 256 nM.

Turning to `Cc1cc2c(cn1)cc(-c1cc(Nc3noc(-c4cccc(O)n4)n3)ccc1C)c(=O)n2C` [Compound A42, 3-(5-{[5-(6-hydroxypyridin-2-yl)-1,2,4-oxadiazol-3-yl]amino}-2-methylphenyl)-1,7-dimethyl-1,2-dihydro-1,6-naphthyridin-2-one], the IC50 turned out to be 265 nM.

Regarding `Cc1cc2c(cn1)cc(-c1cc(Nc3nnc(C4CCCCC4)o3)ccc1C)c(=O)n2C` [Compound B10, 3-{5-[(5-cyclohexyl-1,3,4-oxadiazol-2-yl)amino]-2-methylphenyl}-1,7-dimethyl-1,2-dihydro-1,6-naphthyridin-2-one], inhibition was half-maximal at 378 nM (IC50).

Compound `Cc1cnc(-c2nc(Nc3ccc(C)c(-c4cc5cnc(C)cc5n(C)c4=O)c3)no2)cn1` [Compound A71, 1,7-dimethyl-3-(2-methyl-5-{[5-(5-methylpyrazin-2-yl)-1,2,4-oxadiazol-3-yl]amino}phenyl)-1,2-dihydro-1,6-naphthyridin-2-one] came in with an IC50 of 424 nM.

In turn, `Cc1cc2c(cn1)cc(-c1cc(Nc3noc(CC(C)(C)O)n3)ccc1C)c(=O)n2C` [Compound A56, 3-(5-(5-(2-hydroxy-2-methylpropyl)-1,2,4-oxadiazol-3-ylamino)-2-methylphenyl)-1,7-dimethyl-1,6-naphthyridin-2(1H)-one] yielded an IC50 of 230 nM.

As to `CCc1cc2c(cn1)cc(-c1cc(Nc3noc(-c4ccccn4)n3)ccc1C)c(=O)n2C` [Compound A105, 7-ethyl-1-methyl-3-(2-methyl-5-(5-(pyridin-2-yl)-1,2,4-oxadiazol-3-ylamino)phenyl)-1,6-naphthyridin-2(1H)-one], the IC50 was 285 nM.

Take `Cc1cc2c(cn1)cc(-c1cc(Nc3noc([C@@]4(C)CCCO4)n3)ccc1C)c(=O)n2C` [Compound A97, 1,7-dimethyl-3-[2-methyl-5-({5-[(2R)-2-methyloxolan-2-yl]-1,2,4-oxadiazol-3-yl}amino)phenyl]-1,2-dihydro-1,6-naphthyridin-2-one]: the IC50 was 160 nM.

`CC(=O)c1ccc(-c2nc(Nc3ccc(C)c(-c4cc5cnc(C)cc5n(C)c4=O)c3)no2)cc1` [Compound A95, 3-(5-{[5-(4-acetylphenyl)-1,2,4-oxadiazol-3-yl]amino}-2-methylphenyl)-1,7-dimethyl-1,2-dihydro-1,6-naphthyridin-2-one]: the IC50 is 310 nM.

Regarding `Cc1cc2c(cn1)cc(-c1cc(Nc3noc(-c4cnccn4)n3)ccc1C)c(=O)n2C` [Compound A70, 1,7-dimethyl-3-(2-methyl-5-{[5-(pyrazin-2-yl)-1,2,4-oxadiazol-3-yl]amino}phenyl)-1,2-dihydro-1,6-naphthyridin-2-one], inhibition was half-maximal at 211 nM (IC50).

`Cc1cc2c(cn1)cc(-c1cc(Nc3noc(-c4cc5cc(Cl)ccc5[nH]4)n3)ccc1C)c(=O)n2C` [Compound A46, 3-(5-{[5-(5-chloro-1H-indol-2-yl)-1,2,4-oxadiazol-3-yl]amino}-2-methylphenyl)-1,7-dimethyl-1,2-dihydro-1,6-naphthyridin-2-one] registered an IC50 of 338 nM.

For `Cc1cc2c(cn1)cc(-c1cc(Nc3noc(C4Cc5ccccc5O4)n3)ccc1C)c(=O)n2C` (centres unmarked) [Compound A98, 3-(5-{[5-(2,3-dihydro-1-benzofuran-2-yl)-1,2,4-oxadiazol-3-yl]amino}-2-methylphenyl)-1,7-dimethyl-1,2-dihydro-1,6-naphthyridin-2-one], the IC50 came to 389 nM.

In the case of `Cc1cc2c(cn1)cc(-c1cc(Nc3cc(-c4ccc(F)cc4)on3)ccc1C)c(=O)n2C` [Compound D11], the IC50 was found to be 82 nM.

Compound `Cc1cc2c(cn1)cc(-c1cc(Nc3noc(-c4ccc(C#N)cc4F)n3)ccc1C)c(=O)n2C` [Compound A63, 4-(3-{[3-(1,7-dimethyl-2-oxo-1,2-dihydro-1,6-naphthyridin-3-yl)-4-methylphenyl]amino}-1,2,4-oxadiazol-5-yl)-3-fluorobenzonitrile] showed an IC50 of 123 nM.

Compound `Cc1cc2c(cn1)cc(-c1cc(Nc3cc(-c4ccc(Br)cn4)on3)ccc1C)c(=O)n2C` [Compound D6] came in with an IC50 of 229 nM.

The compound `Cc1cc2c(cn1)cc(-c1cc(Nc3noc(-c4ccccc4)c3C)ccc1C)c(=O)n2C` [Compound D10] had an IC50 of 339 nM.

In the case of `Cc1cc2c(cn1)cc(-c1cc(Nc3noc([C@@H]4CCCO4)n3)ccc1C)c(=O)n2C` [Compound A77, (S)-1,7-dimethyl-3-(2-methyl-5-(5-(tetrahydrofuran-2-yl)-1,2,4-oxadiazol-3-ylamino)phenyl)-1,6-naphthyridin-2(1H)-one], the midpoint of inhibition, the IC50, lay at 27 nM.

`Cc1cc2c(cn1)cc(-c1cc(Nc3noc(C(O)C(C)C)n3)ccc1C)c(=O)n2C` (centres unmarked) [Compound A64, 3-(5-(5-(1-hydroxy-2-methylpropyl)-1,2,4-oxadiazol-3-ylamino)-2-methylphenyl)-1,7-dimethyl-1,6-naphthyridin-2(1H)-one] returned an IC50 of 118 nM.

Turning to `Cc1cc2c(cn1)cc(-c1cc(Nc3noc(C4CC(C)(O)C4)n3)ccc1C)c(=O)n2C` (centres unmarked) [Compound A84, 3-(5-{[5-(3-hydroxy-3-methylcyclobutyl)-1,2,4-oxadiazol-3-yl]amino}-2-methylphenyl)-1,7-dimethyl-1,2-dihydro-1,6-naphthyridin-2-one], it took 176 nM to reach half-maximal inhibition (IC50).

With `Cc1cc2c(cn1)cc(-c1cc(Nc3noc(CC(C)C)n3)ccc1C)c(=O)n2C` [Compound A68, 3-(5-(5-isobutyl-1,2,4-oxadiazol-3-ylamino)-2-methylphenyl)-1,7-dimethyl-1,6-naphthyridin-2(1H)-one], half-maximal inhibition (IC50) required 128 nM.

The compound `Cc1cc2c(cn1)cc(-c1cc(Nc3noc(-c4ccc(CO)cc4)n3)ccc1C)c(=O)n2C` [Compound A43, 3-[5-({5-[4-(hydroxymethyl)phenyl]-1,2,4-oxadiazol-3-yl}amino)-2-methylphenyl]-1,7-dimethyl-1,2-dihydro-1,6-naphthyridin-2-one] yielded an IC50 of 386 nM.

`Cc1cc2c(cn1)cc(-c1cc(Nc3noc(C4CCCN4C)n3)ccc1C)c(=O)n2C` (centres unmarked) [Compound A23, 1,7-dimethyl-3-(2-methyl-5-{[5-(1-methylpyrrolidin-2-yl)-1,2,4-oxadiazol-3-yl]amino}phenyl)-1,2-dihydro-1,6-naphthyridin-2-one] displayed an IC50 of 208 nM.
